US20250230193A1, “CYCLIC COMPOUND HAVING SELECTIVE KRAS INHIBITORY EFFECT ON HRAS AND NRAS” (CHUGAI SEIYAKU KABUSHIKI KAISHA, priority 2022, published 2025)

Experiments:
[1] = target: GDP-bound NRAS wild-type protein (Homo sapiens, UniProt P01111); assay: Binding to NRAS by surface plasmon resonance (SPR), Single Cycle Kinetics; conditions: KD ratio NRAS/KRAS, class symbols
[2] = target: GDP-bound HRAS wild-type protein (Homo sapiens, UniProt P01112); assay: Binding to HRAS by surface plasmon resonance (SPR), Single Cycle Kinetics; conditions: KD ratio HRAS/KRAS, class symbols
Sequence of GDP-bound HRAS wild-type protein (P01112 whole entry): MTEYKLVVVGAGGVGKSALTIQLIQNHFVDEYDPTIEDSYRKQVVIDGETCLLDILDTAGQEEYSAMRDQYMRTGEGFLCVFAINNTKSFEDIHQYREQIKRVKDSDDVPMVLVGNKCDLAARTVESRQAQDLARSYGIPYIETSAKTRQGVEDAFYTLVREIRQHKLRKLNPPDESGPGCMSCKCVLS

Sequence of GDP-bound NRAS wild-type protein (P01111 whole entry): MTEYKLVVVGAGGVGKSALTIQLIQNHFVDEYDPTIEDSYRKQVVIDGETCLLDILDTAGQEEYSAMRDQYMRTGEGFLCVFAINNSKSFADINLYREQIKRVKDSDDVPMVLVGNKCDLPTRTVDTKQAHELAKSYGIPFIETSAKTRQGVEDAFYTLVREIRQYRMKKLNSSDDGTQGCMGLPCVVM

CCC[C@H]1C(=O)N[C@@H]([C@@H](C)CC)C(=O)N2C[C@@H](OC)C[C@H]2C(=O)N(C)[C@H]2C/C=C\CCN(C2=O)[C@@H](Cc2ccc(C)cc2)C(=O)N(C)CC(=O)N[C@@H](CCc2ccc(C(F)(F)F)c(OC)c2)C(=O)N2C[C@H](OCC)C[C@H]2C(=O)NC2(CC(C)(C)C2)C(=O)N(C)[C@@H](C2CCCC2)C(=O)N(C)[C@H](C(=O)N(C)C)CC(=O)N1C [PP2557]
NRAS/KRAS (ratio of KD value with respect to GDP-bound NRAS wild-type protein to KD value with respect to KRAS) [1]: A (a compound having 10 or more and less than 20 is denoted as A)
HRAS/KRAS (ratio of KD value with respect to GDP-bound HRAS wild-type protein to KD value with respect to KRAS) [2]: B (a compound having 3 or more and less than 10 is denoted as B)

CCC[C@H]1C(=O)N[C@@H]([C@@H](C)CC)C(=O)N(C2CC2)CC(=O)N(C)[C@H]2C/C=C\CCN(C2=O)[C@@H](Cc2ccc(C)cc2)C(=O)N(C)CC(=O)N[C@@H](CCc2ccc(Cl)c(Cl)c2)C(=O)N2C[C@H](OCC)C[C@H]2C(=O)NC2(CC(C)(C)C2)C(=O)N(C)[C@@H](C2CCCC2)C(=O)N(C)[C@H](C(=O)N(C)C)CC(=O)N1C [PP2559]
NRAS/KRAS (ratio of KD value with respect to GDP-bound NRAS wild-type protein to KD value with respect to KRAS) [1]: A (a compound having 10 or more and less than 20 is denoted as A)
HRAS/KRAS (ratio of KD value with respect to GDP-bound HRAS wild-type protein to KD value with respect to KRAS) [2]: A (a compound having 10 or more and less than 20 is denoted as A)

CCC[C@H]1C(=O)N[C@@H]([C@@H](C)CC)C(=O)N(C2CC2)CC(=O)N(C)[C@H]2C/C=C\CCN(C2=O)[C@@H](Cc2ccc(C)cc2)C(=O)N(C)CC(=O)N[C@@H](CCc2cc(F)c(C(F)(F)F)c(F)c2)C(=O)N2C[C@H](OCC)C[C@H]2C(=O)NC2(CC(C)(C)C2)C(=O)N(C)[C@@H](C(CC)CC)C(=O)N(C)[C@H](C(=O)N(C)C)CC(=O)N1C [PP2560]
NRAS/KRAS (ratio of KD value with respect to GDP-bound NRAS wild-type protein to KD value with respect to KRAS) [1]: AA (a compound having 20 or more is denoted as AA)
HRAS/KRAS (ratio of KD value with respect to GDP-bound HRAS wild-type protein to KD value with respect to KRAS) [2]: A (a compound having 10 or more and less than 20 is denoted as A)

CCC[C@H]1C(=O)N[C@@H]([C@@H](C)CC)C(=O)N(C2CC2)CC(=O)N(C)[C@H]2C/C=C\CCN(C2=O)[C@@H](Cc2ccc(C)cc2)C(=O)N(C)CC(=O)N[C@@H](CCc2ccc(Cl)c(Cl)c2)C(=O)N2C[C@H](OCC)C[C@H]2C(=O)NC2(CC(C)(C)C2)C(=O)N(C)[C@@H](C(CC)CC)C(=O)N(C)[C@H](C(=O)N(C)C)CC(=O)N1C [PP2561]
NRAS/KRAS (ratio of KD value with respect to GDP-bound NRAS wild-type protein to KD value with respect to KRAS) [1]: AA (a compound having 20 or more is denoted as AA)
HRAS/KRAS (ratio of KD value with respect to GDP-bound HRAS wild-type protein to KD value with respect to KRAS) [2]: A (a compound having 10 or more and less than 20 is denoted as A)

CCO[C@@H]1C[C@H]2C(=O)NC3(CC(C)(C)C3)C(=O)N(C)[C@@H](C3CCCC3)C(=O)N(C)[C@H](C(=O)N(C)C)CC(=O)N(C)[C@@H](COC)C(=O)N[C@@H]([C@@H](C)CC)C(=O)N(C3CC3)CC(=O)N(C)[C@H]3C/C=C\CCN(C3=O)[C@@H](CC3CCCCC3)C(=O)N(C)CC(=O)N[C@@H](CCc3cc(F)c(C(F)(F)F)c(F)c3)C(=O)N2C1 [PP2562]
NRAS/KRAS (ratio of KD value with respect to GDP-bound NRAS wild-type protein to KD value with respect to KRAS) [1]: B (a compound having 3 or more and less than 10 is denoted as B)
HRAS/KRAS (ratio of KD value with respect to GDP-bound HRAS wild-type protein to KD value with respect to KRAS) [2]: B (a compound having 3 or more and less than 10 is denoted as B)

CCO[C@@H]1C[C@H]2C(=O)NC3(CC(C)(C)C3)C(=O)N(C)[C@@H](C3CCCC3)C(=O)N(C)[C@H](C(=O)N(C)C)CC(=O)N(C)[C@@H](COC)C(=O)N[C@@H]([C@@H](C)CC)C(=O)N(C3CC3)CC(=O)N(C)[C@H]3C/C=C\CCN(C3=O)[C@@H](CC3CCCCC3)C(=O)N(C)CC(=O)N[C@@H](CCc3ccc(Cl)c(Cl)c3)C(=O)N2C1 [PP2563]
NRAS/KRAS (ratio of KD value with respect to GDP-bound NRAS wild-type protein to KD value with respect to KRAS) [1]: A (a compound having 10 or more and less than 20 is denoted as A)
HRAS/KRAS (ratio of KD value with respect to GDP-bound HRAS wild-type protein to KD value with respect to KRAS) [2]: A (a compound having 10 or more and less than 20 is denoted as A)

CCO[C@@H]1C[C@H]2C(=O)NC3(CC(C)(C)C3)C(=O)N(C)[C@@H](C(CC)CC)C(=O)N(C)[C@H](C(=O)N(C)C)CC(=O)N(C)[C@@H](COC)C(=O)N[C@@H]([C@@H](C)CC)C(=O)N(C3CC3)CC(=O)N(C)[C@H]3C/C=C\CCN(C3=O)[C@@H](CC3CCCCC3)C(=O)N(C)CC(=O)N[C@@H](CCc3cc(F)c(C(F)(F)F)c(F)c3)C(=O)N2C1 [PP2564]
NRAS/KRAS (ratio of KD value with respect to GDP-bound NRAS wild-type protein to KD value with respect to KRAS) [1]: A (a compound having 10 or more and less than 20 is denoted as A)
HRAS/KRAS (ratio of KD value with respect to GDP-bound HRAS wild-type protein to KD value with respect to KRAS) [2]: A (a compound having 10 or more and less than 20 is denoted as A)

CCC[C@H]1C(=O)N[C@@H]([C@@H](C)CC)C(=O)N(C2CC2)CC(=O)N(C)[C@H]2C/C=C\CCN(C2=O)[C@@H](CC2CCC(F)(F)CC2)C(=O)N(C)CC(=O)N[C@@H](CCc2cc(F)c(C(F)(F)F)c(F)c2)C(=O)N2C[C@H](OCC)C[C@H]2C(=O)NC2(CC(C)(C)C2)C(=O)N(C)[C@@H](C2CCCC2)C(=O)N(C)[C@H](C(=O)N(C)C)CC(=O)N1C [PP2566]
NRAS/KRAS (ratio of KD value with respect to GDP-bound NRAS wild-type protein to KD value with respect to KRAS) [1]: A (a compound having 10 or more and less than 20 is denoted as A)
HRAS/KRAS (ratio of KD value with respect to GDP-bound HRAS wild-type protein to KD value with respect to KRAS) [2]: B (a compound having 3 or more and less than 10 is denoted as B)

CCC[C@H]1C(=O)N[C@@H]([C@@H](C)CC)C(=O)N(C2CC2)CC(=O)N(C)[C@H]2C/C=C\CCN(C2=O)[C@@H](CC2CCC(F)(F)CC2)C(=O)N(C)CC(=O)N[C@@H](CCc2ccc(Cl)c(Cl)c2)C(=O)N2C[C@H](OCC)C[C@H]2C(=O)NC2(CC(C)(C)C2)C(=O)N(C)[C@@H](C2CCCC2)C(=O)N(C)[C@H](C(=O)N(C)C)CC(=O)N1C [PP2567]
NRAS/KRAS (ratio of KD value with respect to GDP-bound NRAS wild-type protein to KD value with respect to KRAS) [1]: A (a compound having 10 or more and less than 20 is denoted as A)
HRAS/KRAS (ratio of KD value with respect to GDP-bound HRAS wild-type protein to KD value with respect to KRAS) [2]: A (a compound having 10 or more and less than 20 is denoted as A)

CCO[C@@H]1C[C@H]2C(=O)NC3(CC(C)(C)C3)C(=O)N(C)[C@@H](C(CC)CC)C(=O)N(C)[C@H](C(=O)N(C)C)CC(=O)N(C)[C@@H](COC)C(=O)N[C@@H]([C@@H](C)CC)C(=O)N(C3CC3)CC(=O)N(C)[C@H]3C/C=C\CCN(C3=O)[C@@H](CC3CCC(F)(F)CC3)C(=O)N(C)CC(=O)N[C@@H](CCc3cc(F)c(C(F)(F)F)c(F)c3)C(=O)N2C1 [PP2568]
NRAS/KRAS (ratio of KD value with respect to GDP-bound NRAS wild-type protein to KD value with respect to KRAS) [1]: A (a compound having 10 or more and less than 20 is denoted as A)
HRAS/KRAS (ratio of KD value with respect to GDP-bound HRAS wild-type protein to KD value with respect to KRAS) [2]: B (a compound having 3 or more and less than 10 is denoted as B)

CCO[C@@H]1C[C@H]2C(=O)NC3(CC(C)(C)C3)C(=O)N(C)[C@@H](C(CC)CC)C(=O)N(C)[C@H](C(=O)N(C)C)CC(=O)N(C)[C@@H](COC)C(=O)N[C@@H]([C@@H](C)CC)C(=O)N(C3CC3)CC(=O)N(C)[C@H]3C/C=C\CCN(C3=O)[C@@H](CC3CCC(F)(F)CC3)C(=O)N(C)CC(=O)N[C@@H](CCc3ccc(Cl)c(Cl)c3)C(=O)N2C1 [PP2569]
NRAS/KRAS (ratio of KD value with respect to GDP-bound NRAS wild-type protein to KD value with respect to KRAS) [1]: AA (a compound having 20 or more is denoted as AA)
HRAS/KRAS (ratio of KD value with respect to GDP-bound HRAS wild-type protein to KD value with respect to KRAS) [2]: A (a compound having 10 or more and less than 20 is denoted as A)

CCC[C@H]1C(=O)N[C@@H]([C@@H](C)CC)C(=O)N(C2CC2)CC(=O)N(C)[C@H]2C/C=C\CCN(C2=O)[C@@H](Cc2ccc(C)cc2)C(=O)N(C)CC(=O)N[C@@H](CCc2cc(F)c(C(F)(F)F)c(F)c2)C(=O)N2C[C@H](OC(C)C)C[C@H]2C(=O)NC2(CC(C)(C)C2)C(=O)N(C)[C@@H](C2CCCC2)C(=O)N(C)[C@H](C(=O)N(C)C)CC(=O)N1C [PP2570]
NRAS/KRAS (ratio of KD value with respect to GDP-bound NRAS wild-type protein to KD value with respect to KRAS) [1]: A (a compound having 10 or more and less than 20 is denoted as A)
HRAS/KRAS (ratio of KD value with respect to GDP-bound HRAS wild-type protein to KD value with respect to KRAS) [2]: A (a compound having 10 or more and less than 20 is denoted as A)

CCC[C@H]1C(=O)N[C@@H]([C@@H](C)CC)C(=O)N(C2CC2)CC(=O)N(C)[C@H]2C/C=C\CCN(C2=O)[C@@H](Cc2ccc(C)cc2)C(=O)N(C)CC(=O)N[C@@H](CCc2ccc(Cl)c(Cl)c2)C(=O)N2C[C@H](OC(C)C)C[C@H]2C(=O)NC2(CC(C)(C)C2)C(=O)N(C)[C@@H](C2CCCC2)C(=O)N(C)[C@H](C(=O)N(C)C)CC(=O)N1C [PP2571]
NRAS/KRAS (ratio of KD value with respect to GDP-bound NRAS wild-type protein to KD value with respect to KRAS) [1]: A (a compound having 10 or more and less than 20 is denoted as A)
HRAS/KRAS (ratio of KD value with respect to GDP-bound HRAS wild-type protein to KD value with respect to KRAS) [2]: A (a compound having 10 or more and less than 20 is denoted as A)

CCC(CC)[C@H]1C(=O)N(C)[C@H](C(=O)N(C)C)CC(=O)N(C)[C@@H](COC)C(=O)N[C@@H]([C@@H](C)CC)C(=O)N(C2CC2)CC(=O)N(C)[C@H]2C/C=C\CCN(C2=O)[C@@H](Cc2ccc(C)cc2)C(=O)N(C)CC(=O)N[C@@H](CCc2cc(F)c(C(F)(F)F)c(F)c2)C(=O)N2C[C@H](OC(C)C)C[C@H]2C(=O)NC2(CC(C)(C)C2)C(=O)N1C [PP2572]
NRAS/KRAS (ratio of KD value with respect to GDP-bound NRAS wild-type protein to KD value with respect to KRAS) [1]: A (a compound having 10 or more and less than 20 is denoted as A)
HRAS/KRAS (ratio of KD value with respect to GDP-bound HRAS wild-type protein to KD value with respect to KRAS) [2]: A (a compound having 10 or more and less than 20 is denoted as A)

CCO[C@@H]1C[C@H]2C(=O)NC3(CC(C)(C)C3)C(=O)N(C)[C@@H](C3CCCC3)C(=O)N(C)[C@H](C(=O)N3CCCCC3)CC(=O)N(C)[C@H]3CCC/C=C/c4ccc(cc4)C[C@@H](C(=O)N(C)CC(=O)N[C@@H](CCc4cc(F)c(C(F)(F)F)c(F)c4)C(=O)N2C1)N1CC/C=C\C[C@@H](C1=O)N(C)C(=O)CN(C)C(=O)[C@H]([C@@H](C)CC)NC3=O [PP2573]
NRAS/KRAS (ratio of KD value with respect to GDP-bound NRAS wild-type protein to KD value with respect to KRAS) [1]: A (a compound having 10 or more and less than 20 is denoted as A)
HRAS/KRAS (ratio of KD value with respect to GDP-bound HRAS wild-type protein to KD value with respect to KRAS) [2]: A (a compound having 10 or more and less than 20 is denoted as A)
